# Results: paper PMC12440775 (Frontiers in Pharmacology, 2025)
# Where two headings read alike, the source gives them in different places.
# Key:
# [1] = Single ascending dose plasma pharmacokinetics (Part 1); type: in vivo, human; conditions: for half-life / AUC(0-inf) / Cmax / Tmax / AUC(0-t) / Vd/F: male, human, plasma; for Vd/F: read-out: Vz/F
# Method: One dose level was tested within each group. Subject groups were dosed and evaluated sequentially, beginning with the lowest-dose group and proceeding stepwise to the highest-dose group.
# (§1) Blood samples were taken pre-dose (0) and at prespecified time points after dosing (Figure 1). At each time point, approximately 4.9 mL of blood was drawn into evacuated collection tubes, containing ethylene diamine tetraacetate (EDTA) anticoagulant and labeled with sample identification information. The EDTA-anticoagulated blood samples were immediately placed on ice and centrifuged at 4 °C and approximately 2000–4,000 g for approximately 10 min in a refrigerated centrifuge as soon as possible after collection. The harvested plasma was split into two aliquots, immediately placed in appropriately labeled tubes, and stored at −20 °C or below until shipment.
# (§2) Standard formulas for non-compartmental pharmacokinetic analysis provided by WinNonlin were used in determination of the maximum concentration (Cmax), time to maximum concentration (tmax), oral clearance (CL/F), mean residence time (MRTpo), and apparent volume distribution in terminal phase (Vz/F). The area under the plasma concentration–time curve (AUC) was calculated using a linear up/log down trapezoidal algorithm. The predicted concentration at the last time-point with quantifiable concentration was used for extrapolation of AUC. The fraction excreted as unchanged drug in urine (fe) was calculated as the percentage of the amount of drug excreted in urine as unchanged drug (Aet1–t2) compared to the administered dose ([Huang et al., 2008b]).
# The power model was used for the analysis of dose proportionality in terms of AUC0– ∞ and Cmax. The model is described using the following equation: Ykm = α•Dk ^β •ekm. […] Dose linearity requires that β equals 1. […] Statistical analysis was performed using the SAS® program system (version 8.2, Cary, NC) ([Huang et al., 2008b]).
# human Hepato Pac model = tested on: human Hepato Pac model; parameters: method as in Ramsden et al., 2014b; conditions: ref Ramsden et al., 2014b; cited from earlier work
# HCV = tested on: HCV; parameters: method as in Ferenci et al., 2015; conditions: in combination with PegIFN and RBV, treatment-naïve patients; ref Ferenci et al., 2015; cited from earlier work
# [2] = Food effect on relative bioavailability of 480 mg FDV, two-period crossover (Part 2); type: in vivo, human; conditions: for Tmax: median (range); for Tmax / AUC(0-t) / Vd/F / half-life: N = 7; for AUC(0-t) / Vd/F / half-life: mean (CV%); for Vd/F: read-out: Vz/F; for half-life: read-out: t½ (converted)
# Method: as §1
# as §2, with “2008b]). […]” for “2008b]).”
# CYP2C9 = conditions: therapeutic dose of 120 mg QD; cited from earlier work
# [3] = HCV-infected patients, ref Huang et al., cited from earlier work
# [4] = 480 mg FDV in solution, fed vs fasted
# [5] = male, human, plasma, oral, 480 mg, FDV 480 mg/fasted
# [6] = male, human, plasma, oral, 480 mg, FDV 480 mg/fed
smiles,measurement,setting,value
"C=C[C@@H]1C[C@]1(NC(=O)[C@@H]1C[C@@H](Oc2cc(-c3csc(NC(=O)C(C)C)n3)nc3c(Br)c(OC)ccc23)CN1C(=O)[C@@H](NC(=O)OC1CCCC1)C(C)(C)C)C(=O)O [FDV, Faldaprevir]","Inter-subject variability, gCV of AUC0–∞",[1]; higher-dose groups,60–80%
same,half-life,"[1]; oral, range over single doses of 4–1,200 mg, read-out: gMean t1/2",930 to 2350 min
same,AUC(0-inf),"[1]; oral, range over single doses of 4–1,200 mg, read-out: geometric mean (gMean) AUC0-inf",254 to 402000 ng·h/mL
same,Cmax,"[1]; oral, range over single doses of 4–1,200 mg, read-out: geometric mean (gMean) Cmax",3.57 to 16500 ng/mL
same,Tmax,"[1]; oral, range over single doses of 4–1,200 mg, read-out: median tmax",4 to 14 h
same,AUC(0-t),"[1]; po, 4 mg",201 ng·h/mL
same,half-life,"[1]; po, 4 mg, FDV 4 mg single oral dose, fasted, gMean (gCV%), read-out: t½ (converted)",~2340 min
same,AUC(0-inf),"[1]; po, 4 mg, read-out: AUC0–∞",254 ng·h/mL
same,Cmax,"[1]; po, 4 mg, read-out: Cmax",3.6 ng/mL
same,Vd/F,"[1]; po, 4 mg",868 L
same,Tmax,"[1]; po, 4 mg, read-out: tmax",14 h
same,AUC(0-t),"[1]; po, 16 mg",1030 ng·h/mL
same,half-life,"[1]; po, 16 mg, FDV 16 mg single oral dose, fasted, gMean (gCV%), read-out: t½ (converted)",1910 min
same,Cmax,"[1]; po, 16 mg, read-out: Cmax",22.8 ng/mL
same,Vd/F,"[1]; po, 16 mg",600 L
same,Tmax,"[1]; po, 16 mg, read-out: tmax",8 h
same,AUC(0-t),"[1]; po, 48 mg",3280 ng·h/mL
same,half-life,"[1]; po, 48 mg, FDV 48 mg single oral dose, fasted, gMean (gCV%), read-out: t½ (converted)",2260 min
same,AUC(0-inf),"[1]; po, 48 mg, read-out: AUC0–∞",3980 ng·h/mL
same,Cmax,"[1]; po, 48 mg, read-out: Cmax",86.6 ng/mL
same,Vd/F,"[1]; po, 48 mg",640 L
same,Tmax,"[1]; po, 48 mg, read-out: tmax",8 h
same,AUC(0-t),"[1]; po, 120 mg",9660 ng·h/mL
same,half-life,"[1]; po, 120 mg, FDV 120 mg single oral dose, fasted, gMean (gCV%), read-out: t½ (converted)",1640 min
same,AUC(0-inf),"[1]; po, 120 mg, read-out: AUC0–∞",10700 ng·h/mL
same,Cmax,"[1]; po, 120 mg, read-out: Cmax",344 ng/mL
same,Vd/F,"[1]; po, 120 mg",435 L
same,Tmax,"[1]; po, 120 mg, read-out: tmax",7 h
same,AUC(0-t),"[1]; po, 240 mg",36100 ng·h/mL
same,half-life,"[1]; po, 240 mg, FDV 240 mg single oral dose, fasted, gMean (gCV%), read-out: t½ (converted)",1330 min
same,AUC(0-inf),"[1]; po, 240 mg, read-out: AUC0–∞",37400 ng·h/mL
same,Cmax,"[1]; po, 240 mg, read-out: Cmax",2070 ng/mL
same,Vd/F,"[1]; po, 240 mg",200 L
same,Tmax,"[1]; po, 240 mg, read-out: tmax",4 h
same,AUC(0-t),"[1]; po, 480 mg",74100 ng·h/mL
same,half-life,"[1]; po, 480 mg, FDV 480 mg single oral dose, fasted, gMean (gCV%), read-out: t½ (converted)",2000 min
same,AUC(0-inf),"[1]; po, 480 mg, read-out: AUC0–∞",80700 ng·h/mL
same,Cmax,"[1]; po, 480 mg, read-out: Cmax",4300 ng/mL
same,Vd/F,"[1]; po, 480 mg",278 L
same,Tmax,"[1]; po, 480 mg, read-out: tmax",4 h
same,AUC(0-t),"[1]; po, 800 mg",127000 ng·h/mL
same,half-life,"[1]; po, 800 mg, FDV 800 mg single oral dose, fasted, gMean (gCV%), read-out: t½ (converted)",~960 min
same,AUC(0-inf),"[1]; po, 800 mg, read-out: AUC0–∞",128000 ng·h/mL
same,Cmax,"[1]; po, 800 mg, read-out: Cmax",6630 ng/mL
same,Vd/F,"[1]; po, 800 mg",141 L
same,Tmax,"[1]; po, 800 mg, read-out: tmax",9 h
same,AUC(0-t),"[1]; po, 1200 mg",397000 ng·h/mL
same,half-life,"[1]; po, 1200 mg, FDV 1,200 mg single oral dose, fasted, gMean (gCV%), read-out: t½ (converted)",~960 min
same,AUC(0-inf),"[1]; po, 1200 mg, read-out: AUC0–∞",402000 ng·h/mL
same,Cmax,"[1]; po, 1200 mg, read-out: Cmax",16500 ng/mL
same,Vd/F,"[1]; po, 1200 mg",65 L
same,Tmax,"[1]; po, 1200 mg, read-out: tmax",8 h
same,"Inter-subject variability, gCV of AUC0–∞",[1]; most of the lower-dose groups,approximately 30%
same,Predicted enrichment in the liver in humans,human Hepato Pac model,22–32 fold
same,Sustained virologic response (SVR) rate,HCV,up to 84%
same,Increase of AUC0–∞ (systemic exposure) after high-fat breakfast,[2]; [4],14%
same,Increase of Cmax after high-fat and high-calorie breakfast,[2]; [4],9%
same,Effect of food on the rBA of FDV,"[2]; 480 mg FDV in solution, high-fat breakfast",no clinically relevant effect
same,Tmax,[2]; FDV 480 mg/fasted,4 (4–6) h
same,Tmax,[2]; FDV 480 mg/fed,6 (4–12) h
same,AUC(0-t),[2]; [5],83400 ng·h/mL
same,Vd/F,[2]; [5],161 L
same,half-life,[2]; [5],1180 min
same,Tmax,"[2]; male, human, plasma, oral, 480 mg, FDV 480 mg/fasted, read-out: tmax",6 h
same,AUC(0-t),[2]; [6],92000 ng·h/mL
same,Vd/F,[2]; [6],132 L
same,half-life,[2]; [6],1080 min
same,Tmax,"[2]; male, human, plasma, oral, 480 mg, FDV 480 mg/fed, read-out: tmax",4 h
same,Effect on CYP2C9,CYP2C9,inhibitory effects
same,"FDV exposure at 240 mg compared to the 120-mg dose, based on trough concentrations",[3]; 2016,approximately 5 fold
same,"FDV exposure at 240 mg compared to the 120-mg dose, based on AUC0–24,ss",[3]; 2021,up to 7 fold
